{"source": "patent US20240398793A1", "about": "“Methods of Treating Lymphedema” (Celltaxis, LLC, priority 2021, published 2024)", "key": {"[1]": {"molecular_target": "T1, LTA4H epoxide hydrolase (Homo sapiens (Human), UniProt P09960)", "T1 sequence (P09960 whole entry)": "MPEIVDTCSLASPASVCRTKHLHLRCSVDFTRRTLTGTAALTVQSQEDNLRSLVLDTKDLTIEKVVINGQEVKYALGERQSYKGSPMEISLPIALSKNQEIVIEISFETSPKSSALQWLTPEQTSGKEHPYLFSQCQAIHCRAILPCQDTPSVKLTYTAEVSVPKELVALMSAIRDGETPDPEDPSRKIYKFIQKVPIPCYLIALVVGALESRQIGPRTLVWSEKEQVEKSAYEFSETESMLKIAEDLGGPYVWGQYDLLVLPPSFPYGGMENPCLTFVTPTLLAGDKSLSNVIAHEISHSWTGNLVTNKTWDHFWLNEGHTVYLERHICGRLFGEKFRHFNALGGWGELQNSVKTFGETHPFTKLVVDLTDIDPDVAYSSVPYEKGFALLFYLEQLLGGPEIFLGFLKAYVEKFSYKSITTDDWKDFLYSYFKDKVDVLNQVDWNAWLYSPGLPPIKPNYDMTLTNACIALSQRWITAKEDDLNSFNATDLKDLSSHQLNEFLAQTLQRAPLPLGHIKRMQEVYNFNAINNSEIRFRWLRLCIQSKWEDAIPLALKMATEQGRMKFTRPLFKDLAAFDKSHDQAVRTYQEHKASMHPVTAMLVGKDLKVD", "assay": "LTA4H epoxide hydrolase enzymatic activity (LTB4 production) in vitro", "type": "biochemical", "details": "read-out: IC50, LTA4H-mediated production of LTB4", "protocol": "The hydrolase-homogeneous time resolved fluorescence assay is a two-step assay that measures the hydrolysis of LTA4 to LTB4 by analyzing the amount of LTB4 produced. The first step involves the enzymatic conversion of LTA4 to LTB4 and the second step involves the quantification of the LTB4 formed with a homogeneous time resolved fluorescence assay. […] In the whole blood assay, the inhibitor compounds are tested for their ability to inhibit LTB4 release upon stimulation with calcium ionophore and the LTB4 levels in supernatants are measured by ELISA."}, "[2]": {"tested_on": "LTB4 production in human whole blood", "assay": "LTB4 production in ex vivo stimulated human whole blood", "type": "cell-based", "text": "The IC50 of LTA4H epoxide hydrolase activity can be measured using methods known in the art, for example, using the LTA4 hydrolase homogenous time resolved fluorescence assay which is described, for example, in U.S. Pat. Nos. 7,737,145 and 10,202,362; the contents of which are expressly incorporated by reference herein. The hydrolase-homogeneous time resolved fluorescence assay is a two-step assay that measures the hydrolysis of LTA4 to LTB4 by analyzing the amount of LTB4 produced. The first step involves the enzymatic conversion of LTA4 to LTB4 and the second step involves the quantification of the LTB4 formed with a homogeneous time resolved fluorescence assay. LTA4H epoxide hydrolase activity can also be measured in a whole blood assay, for example, using human whole blood, using the method described in Penning, T. D. et al., J. Med. Chem. (2000), 43 (4): 721-735 and U.S. Pat. No. 7,737,145; the contents of each of which are expressly incorporated by reference herein. In the whole blood assay, the inhibitor compounds are tested for their ability to inhibit LTB4 release upon stimulation with calcium ionophore and the LTB4 levels in supernatants are measured by ELISA. LTA4H epoxide hydrolase activity can also be measured according to the method described in Low et al. (2017). […]"}, "[3]": {"tested_on": "neutrophil swarming", "assay": "Neutrophil swarming in vitro in response to CF sputum factors", "type": "cell-based", "details": "48 ng/mL; factors present in human CF sputum"}, "[4]": {"tested_on": "LTB4 production in blood", "assay": "Human pharmacodynamic studies, inhibition of LTB4 production in blood", "type": "in vivo"}, "[5]": {"tested_on": "sputum white blood cells and neutrophils", "assay": "Sputum cell counts in CF patients", "type": "in vivo, human"}, "[6]": {"tested_on": "patients with cystic fibrosis", "assay": "Phase 2 study in adult CF patients, 48 weeks, efficacy", "type": "in vivo, human", "details": "for rate of pulmonary exacerbations: 48 weeks of treatment"}, "[7]": {"assay": "Nonclinical pharmacokinetics and mass balance studies", "type": "in vivo, animals"}, "[8]": {"molecular_target": "P-glycoprotein (P-gp) (Homo sapiens (Human), UniProt P08183)", "sequence (P08183 whole entry)": "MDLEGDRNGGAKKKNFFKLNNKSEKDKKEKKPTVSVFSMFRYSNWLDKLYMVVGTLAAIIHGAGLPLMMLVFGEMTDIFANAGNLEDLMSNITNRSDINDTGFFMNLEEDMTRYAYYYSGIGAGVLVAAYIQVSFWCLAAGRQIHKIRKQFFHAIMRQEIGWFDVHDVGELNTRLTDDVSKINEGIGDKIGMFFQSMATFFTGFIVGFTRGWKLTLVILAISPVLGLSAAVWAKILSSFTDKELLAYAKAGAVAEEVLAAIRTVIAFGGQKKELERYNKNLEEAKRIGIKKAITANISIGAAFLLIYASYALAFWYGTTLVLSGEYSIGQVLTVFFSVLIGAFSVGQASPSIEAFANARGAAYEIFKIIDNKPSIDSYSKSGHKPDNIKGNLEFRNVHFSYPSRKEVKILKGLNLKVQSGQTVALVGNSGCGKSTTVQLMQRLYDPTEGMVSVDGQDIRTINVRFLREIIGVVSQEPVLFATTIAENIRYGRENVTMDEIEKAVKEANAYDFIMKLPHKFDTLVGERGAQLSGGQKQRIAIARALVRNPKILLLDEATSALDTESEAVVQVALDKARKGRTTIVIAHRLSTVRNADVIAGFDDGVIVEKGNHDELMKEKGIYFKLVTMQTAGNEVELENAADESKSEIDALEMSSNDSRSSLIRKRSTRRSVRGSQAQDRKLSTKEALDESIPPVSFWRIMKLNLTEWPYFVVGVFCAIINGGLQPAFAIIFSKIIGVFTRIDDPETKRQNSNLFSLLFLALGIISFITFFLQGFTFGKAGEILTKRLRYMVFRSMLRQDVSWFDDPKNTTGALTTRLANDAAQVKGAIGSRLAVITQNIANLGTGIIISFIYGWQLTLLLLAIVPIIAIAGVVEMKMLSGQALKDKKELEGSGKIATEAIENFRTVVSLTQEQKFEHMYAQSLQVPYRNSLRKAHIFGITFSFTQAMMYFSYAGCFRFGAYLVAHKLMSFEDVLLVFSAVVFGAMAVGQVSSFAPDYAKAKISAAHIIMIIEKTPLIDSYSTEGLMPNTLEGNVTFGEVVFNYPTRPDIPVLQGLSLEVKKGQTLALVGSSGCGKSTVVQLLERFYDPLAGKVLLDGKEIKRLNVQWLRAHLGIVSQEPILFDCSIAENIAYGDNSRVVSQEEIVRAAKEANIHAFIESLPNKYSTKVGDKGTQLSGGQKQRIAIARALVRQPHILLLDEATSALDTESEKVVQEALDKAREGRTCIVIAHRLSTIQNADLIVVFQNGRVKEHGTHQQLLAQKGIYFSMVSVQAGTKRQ", "assay": "In vitro drug interaction study, P-gp", "type": "in vitro ADME"}, "[9]": {"assay": "Preclinical phototoxicity studies"}, "[10]": {"assay": "Long-term animal safety studies", "type": "in vivo, animals"}, "[11]": {"assay": "Human pharmacokinetics after oral administration", "type": "in vivo", "details": "for half-life / Tmax: human, plasma; for half-life: oral, read-out: T1/2 (elimination half-life); for Tmax: po"}, "[12]": {"molecular_target": "LTA4H aminopeptidase (Homo sapiens (Human), UniProt P09960)", "sequence (P09960 whole entry)": "as the sequence (P09960 whole entry) above", "details": "Bhatt et al. (2017); read-out: LTA4H aminopeptidase potency; cited from earlier work"}, "[13]": {"molecular_target": "T1, LTA4H epoxide hydrolase", "details": "read-out: LTA4H epoxide hydrolase potency; Bhatt et al. (2017); cited from earlier work"}, "[14]": {"assay": "Clinical safety and tolerability"}}, "note": "Read-outs that look alike come from different tables or passages of the source."}
{"molecule": "O=C(O)c1ccc(CN2C[C@@H]3C[C@H]2CN3Cc2ccc(Oc3ccc(-c4ncco4)cc3)cc2)cc1", "note": "[Acebilustat, 4-{[(1S,4S)-5-({4-[4-oxazol-2-yl-phenoxy]phenyl}methyl)-2,5-diazabicyclo[2.2.1]heptan-2-yl]methyl}benzoic acid]", "values": [{"measurement": "IC50", "setting": "[1]", "value": 13, "unit": "nM"}, {"measurement": "IC50", "setting": "[2]; ex vivo stimulated human whole blood", "value": 64, "unit": "nM"}, {"measurement": "IC50", "setting": "[2]; human whole blood tested ex vivo, approximate", "value": "~0.0308", "unit": "µg/mL"}, {"measurement": "reduction of neutrophil swarming", "setting": "[3]", "value": 80, "unit": "%"}, {"measurement": "inhibition at 50 mg", "setting": "[4]; 50 mg dose, human pharmacodynamic studies", "value": "≥ 63", "unit": "%"}, {"measurement": "inhibition at 100 mg", "setting": "[4]; 100 mg dose, human pharmacodynamic studies", "value": "≥ 74", "unit": "%"}, {"measurement": "inhibition at 150 mg", "setting": "[4]; 150 mg dose, human pharmacodynamic studies", "value": "≥ 82", "unit": "%"}, {"measurement": "inhibition at 200 mg", "setting": "[4]; 200 mg dose, human pharmacodynamic studies", "value": "≥ 85", "unit": "%"}, {"measurement": "EC50", "setting": "[4]; Homo sapiens, in vivo, humans, estimated", "value": 0.093, "unit": "µg/mL"}, {"measurement": "EC50", "setting": "[4]; human clinical PD studies, blood", "value": 190, "unit": "nM"}, {"measurement": "EC50 for inhibition of LTB4 production", "setting": "[4]; in vivo, humans, estimated", "value": 0.093, "unit": "µg/mL"}, {"measurement": "engagement of the pharmacologic mechanism in blood over 24-hour dosing interval", "setting": "[4]; once-daily oral doses of 50 mg and above, phase 1 studies", "value": "significant engagement of the pharmacologic mechanism"}, {"measurement": "sputum neutrophils decrease", "setting": "[5]; 100 mg group", "value": 65, "unit": "%"}, {"measurement": "sputum white blood cells decrease from Baseline", "setting": "[5]; 100 mg group", "value": 60, "unit": "%"}, {"measurement": "sputum neutrophils decrease", "setting": "[5]; all treated (50 to 100 mg)", "value": 34, "unit": "%"}, {"measurement": "sputum white blood cells decrease from Baseline", "setting": "[5]; all treated subjects (50 or 100 mg)", "value": 31, "unit": "%"}, {"measurement": "change from baseline in percent predicted FEV1 versus placebo", "setting": "[6]; 48-week Phase 2 CF study, primary endpoint", "value": "no statistically significant difference"}, {"measurement": "time to first pulmonary exacerbation", "setting": "[6]; CF patients, 48 weeks, secondary efficacy analysis", "value": "concordant numerical benefit"}, {"measurement": "risk of infection", "setting": "[6]; adult CF patients, 48 weeks", "value": "no evidence of increased risk of infection"}, {"measurement": "rate of pulmonary exacerbations", "setting": "[6]; adult CF patients", "value": "concordant numerical benefit"}, {"measurement": "rate of pulmonary exacerbations", "setting": "[6]; adult CF patients, listed as acebilustat", "value": "showed promise in reducing the rate of pulmonary exacerbations"}, {"measurement": "accumulation and retention in pigmented tissues (uveal tract)", "setting": "[7]; mass balance studies in animals", "value": "some potential for accumulation and retention"}, {"measurement": "route of elimination", "setting": "[7]; nonclinical", "value": "primarily via liver-bile-feces"}, {"measurement": "total drug excreted via kidneys", "setting": "[7]; nonclinical", "value": "less than 3%"}, {"measurement": "drug interactions with substrates of P-gp", "setting": "[8]", "value": "potential for drug interactions"}, {"measurement": "phototoxic effects", "setting": "[9]", "value": "no potential for phototoxic effects"}, {"measurement": "ophthalmologic changes", "setting": "[10]; long term safety studies", "value": "no evidence for ophthalmologic changes"}, {"measurement": "dose limiting toxicity", "setting": "[10]; long-term animal safety studies across species", "value": "failure to gain weight associated with reduced food consumption"}, {"measurement": "half-life", "setting": "[11]; CF patients", "value": "8 to 9", "unit": "h"}, {"measurement": "half-life", "setting": "[11]; healthy volunteers", "value": "15 to 18", "unit": "h"}, {"measurement": "Tmax", "setting": "[11]; humans, fasting", "value": "~1.5", "unit": "h"}, {"measurement": "Tmax", "setting": "[11]; humans, with a high-fat meal", "value": "5 to 6", "unit": "h"}, {"measurement": "exposures (Cmax, AUC), healthy volunteers versus CF patients", "setting": "[11]; humans", "value": "did not vary appreciably"}, {"measurement": "time to steady state exposure", "setting": "[11]; humans, repeated dosing", "value": 7, "unit": "days"}, {"measurement": "effect of larger body size and concomitant CFTR modulator therapies on clearance", "setting": "[11]; population PK, Phase 2 CF trial", "value": "increase clearance"}, {"measurement": "IC50", "setting": "[12]", "value": 27, "unit": "nM"}, {"measurement": "IC50", "setting": "[13]", "value": 12, "unit": "nM"}, {"measurement": "tolerability", "setting": "[14]; CF patients, 50 mg and 100 mg per day for 48 weeks", "value": "generally well tolerated"}, {"measurement": "serious adverse reactions (SARs)", "setting": "[14]; Phase 1 studies, healthy volunteers or subjects with CF", "value": "No SARs were reported"}, {"measurement": "safety and tolerability", "setting": "[14]; across six clinical studies, 5 to 200 mg", "value": "generally safe and well tolerated"}, {"measurement": "circulating neutrophil counts or sputum microbiology", "setting": "[14]; clinical studies", "value": "did not alter"}, {"measurement": "headache considered to be related to Acebilustat", "setting": "[14]; clinical studies", "value": 8, "unit": "%"}, {"measurement": "tolerability", "setting": "[14]; healthy volunteers, once-daily oral up to 200 mg/day for 14 days", "value": "well tolerated"}]}
